The numbers were not newly measured in patent publication US20120237563A1, “CONTROLLED-RELEASE FORMULATIONS OF […] AND USES THEREOF” (UNIVERSITY OF FLORIDA RESEARCH […]., priority 2009, published 2012), which cites them from elsewhere.

The conditions of the data set: clinical studies.

The structures appear in SMILES notation.

As for `COc1ccc(/C=C2\CCCN=C2c2cccnc2)c(OC)c1` [DMXBA, 3-(2,4-dimethoxybenzylidene)-anabaseine], the “Safety of large oral doses” value is “without adverse effects”. In addition, the Half-life entry (oral) is listed as “two”.
